Reference: patent US7118895B2, “Process for producing aglycon by using diglycosidase and flavor-improved food containing the aglycon and converting agent to be used in the process” (Amano Enzyme Inc., priority 2000, dated 2006)

Key:
[1] = test system: β-Xylosidase derived from pectinase G; experiment: Reactivity toward various isoflavone glycosides (HPLC); type: biochemical; design: unit not given here; settings: 55 °C, pH 4.0
How it was run: (§1)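 Enzymes at 0.75 AU/mL in pH 4.0 acetate buffer were reacted at 55° C with individual isoflavone glycosides (substrate stock 2 mM in methanol) in 20 mM acetate pH 4.0. Aglycone release followed at 0, 1, 3 and 6 h: ethanol-quenched, ODS HPLC with UV 260 nm, quantified against calibration curves.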

[2] = test system: β-Glucosidase derived from almond; experiment: as above; type: biochemical; design: unit not given here; settings: 55 °C, pH 4.0
How it was run: as §1

Crude diglycosidase = experiment: Examination of substrate concentration in the conversion into isoflavone aglycons by diglycosidase using soybean materials; type: biochemical, Penicillium multicolor IAM7153;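 note: percent of the isoflavone family total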
How it was run: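 Soybean materials (roasted soy flour, soymilk, defatted soybean, concentrated soy protein) at 2–30% (w/v) in 20 mM acetate pH 4.0 were reacted with crude diglycosidase at 55° C with shaking; enzyme solution added was 1.88 AU/mL. Samples taken at 0, 1, 3 and 6 h were ethanol-extracted and analyzed by HPLC.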

O=C(O)CC(=O)OC[C@H]1O[C@@H](Oc2cc(O)c3c(=O)c(-c4ccc(O)cc4)coc3c2)[C@H](O)[C@@H](O)[C@@H]1O [malonylgenistin, 6″-O-malonylgenistin]
aglycon ([1]; Reaction time 0 h): 0
glucoside ([1]; Reaction time 0 h): 100
aglycon ([1]; Reaction time 1 h): 0
glucoside ([1]; Reaction time 1 h): 100
aglycon ([1]; Reaction time 3 h): 0.6
glucoside ([1]; Reaction time 3 h): 99.4
aglycon ([1]; Reaction time 6 h): 2
glucoside ([1]; Reaction time 6 h): 98
aglycon ([2]; Reaction time 0 h): 0
glucoside ([2]; Reaction time 0 h): 100
aglycon ([2]; Reaction time 1 h): 0
glucoside ([2]; Reaction time 1 h): 100
aglycon ([2]; Reaction time 3 h): 0
glucoside ([2]; Reaction time 3 h): 100
aglycon ([2]; Reaction time 6 h): 0
glucoside ([2]; Reaction time 6 h): 100
Decomposition efficiency: ratio of each glycoside/aglycon within its isoflavone family (Crude diglycosidase; concentrated soybean protein, substrate concentration 2%, heat treatment of enzyme no, reaction time 0 h): not detected
Decomposition efficiency: ratio of each glycoside/aglycon within its isoflavone family (Crude diglycosidase; concentrated soybean protein, substrate concentration 2%, heat treatment of enzyme no, reaction time 1 h): not detected
Decomposition efficiency: ratio of each glycoside/aglycon within its isoflavone family (Crude diglycosidase; concentrated soybean protein, substrate concentration 2%, heat treatment of enzyme no, reaction time 3 h): not detected
Decomposition efficiency: ratio of each glycoside/aglycon within its isoflavone family (Crude diglycosidase; concentrated soybean protein, substrate concentration 2%, heat treatment of enzyme no, reaction time 6 h): not detected
Decomposition efficiency: ratio of each glycoside/aglycon within its isoflavone family (Crude diglycosidase; concentrated soybean protein, substrate concentration 2%, heat treatment of enzyme yes, reaction time 6 h): not detected
Decomposition efficiency: ratio of each glycoside/aglycon within its isoflavone family (Crude diglycosidase; concentrated soybean protein, substrate concentration 5%, heat treatment of enzyme no, reaction time 0 h): not detected
Decomposition efficiency: ratio of each glycoside/aglycon within its isoflavone family (Crude diglycosidase; concentrated soybean protein, substrate concentration 5%, heat treatment of enzyme no, reaction time 1 h): not detected
Decomposition efficiency: ratio of each glycoside/aglycon within its isoflavone family (Crude diglycosidase; concentrated soybean protein, substrate concentration 5%, heat treatment of enzyme no, reaction time 3 h): not detected
Decomposition efficiency: ratio of each glycoside/aglycon within its isoflavone family (Crude diglycosidase; concentrated soybean protein, substrate concentration 5%, heat treatment of enzyme no, reaction time 6 h): not detected
Decomposition efficiency: ratio of each glycoside/aglycon within its isoflavone family (Crude diglycosidase; concentrated soybean protein, substrate concentration 5%, heat treatment of enzyme yes, reaction time 6 h): not detected
Decomposition efficiency: ratio of each glycoside/aglycon within its isoflavone family (Crude diglycosidase; concentrated soybean protein, substrate concentration 10%, heat treatment of enzyme no, reaction time 0 h): not detected
Decomposition efficiency: ratio of each glycoside/aglycon within its isoflavone family (Crude diglycosidase; concentrated soybean protein, substrate concentration 10%, heat treatment of enzyme no, reaction time 1 h): not detected
Decomposition efficiency: ratio of each glycoside/aglycon within its isoflavone family (Crude diglycosidase; concentrated soybean protein, substrate concentration 10%, heat treatment of enzyme no, reaction time 3 h): not detected
Decomposition efficiency: ratio of each glycoside/aglycon within its isoflavone family (Crude diglycosidase; concentrated soybean protein, substrate concentration 10%, heat treatment of enzyme no, reaction time 6 h): not detected
Decomposition efficiency: ratio of each glycoside/aglycon within its isoflavone family (Crude diglycosidase; concentrated soybean protein, substrate concentration 10%, heat treatment of enzyme yes, reaction time 6 h): not detected
Decomposition efficiency: ratio of each glycoside/aglycon within its isoflavone family (Crude diglycosidase; concentrated soybean protein, substrate concentration 20%, heat treatment of enzyme no, reaction time 0 h): not detected
Decomposition efficiency: ratio of each glycoside/aglycon within its isoflavone family (Crude diglycosidase; concentrated soybean protein, substrate concentration 20%, heat treatment of enzyme no, reaction time 1 h): not detected
Decomposition efficiency: ratio of each glycoside/aglycon within its isoflavone family (Crude diglycosidase; concentrated soybean protein, substrate concentration 20%, heat treatment of enzyme no, reaction time 3 h): not detected
Decomposition efficiency: ratio of each glycoside/aglycon within its isoflavone family (Crude diglycosidase; concentrated soybean protein, substrate concentration 20%, heat treatment of enzyme no, reaction time 6 h): not detected
Decomposition efficiency: ratio of each glycoside/aglycon within its isoflavone family (Crude diglycosidase; concentrated soybean protein, substrate concentration 20%, heat treatment of enzyme yes, reaction time 6 h): not detected
Decomposition efficiency: ratio of each glycoside/aglycon within its isoflavone family (Crude diglycosidase; concentrated soybean protein, substrate concentration 30%, heat treatment of enzyme no, reaction time 0 h): not detected
Decomposition efficiency: ratio of each glycoside/aglycon within its isoflavone family (Crude diglycosidase; concentrated soybean protein, substrate concentration 30%, heat treatment of enzyme no, reaction time 1 h): not detected
Decomposition efficiency: ratio of each glycoside/aglycon within its isoflavone family (Crude diglycosidase; concentrated soybean protein, substrate concentration 30%, heat treatment of enzyme no, reaction time 3 h): not detected
Decomposition efficiency: ratio of each glycoside/aglycon within its isoflavone family (Crude diglycosidase; concentrated soybean protein, substrate concentration 30%, heat treatment of enzyme no, reaction time 6 h): not detected
Decomposition efficiency: ratio of each glycoside/aglycon within its isoflavone family (Crude diglycosidase; concentrated soybean protein, substrate concentration 30%, heat treatment of enzyme yes, reaction time 6 h): not detected
Decomposition efficiency: ratio of each glycoside/aglycon within its isoflavone family (Crude diglycosidase; roasted soy flour, substrate concentration 2%, heat treatment of enzyme no, reaction time 0 h): not detected
Decomposition efficiency: ratio of each glycoside/aglycon within its isoflavone family (Crude diglycosidase; roasted soy flour, substrate concentration 2%, heat treatment of enzyme no, reaction time 1 h): not detected
Decomposition efficiency: ratio of each glycoside/aglycon within its isoflavone family (Crude diglycosidase; roasted soy flour, substrate concentration 2%, heat treatment of enzyme no, reaction time 3 h): not detected
Decomposition efficiency: ratio of each glycoside/aglycon within its isoflavone family (Crude diglycosidase; roasted soy flour, substrate concentration 2%, heat treatment of enzyme no, reaction time 6 h): not detected
Decomposition efficiency: ratio of each glycoside/aglycon within its isoflavone family (Crude diglycosidase; roasted soy flour, substrate concentration 2%, heat treatment of enzyme yes, reaction time 6 h): not detected
Decomposition efficiency: ratio of each glycoside/aglycon within its isoflavone family (Crude diglycosidase; roasted soy flour, substrate concentration 5%, heat treatment of enzyme no, reaction time 0 h): not detected
Decomposition efficiency: ratio of each glycoside/aglycon within its isoflavone family (Crude diglycosidase; roasted soy flour, substrate concentration 5%, heat treatment of enzyme no, reaction time 1 h): not detected
Decomposition efficiency: ratio of each glycoside/aglycon within its isoflavone family (Crude diglycosidase; roasted soy flour, substrate concentration 5%, heat treatment of enzyme no, reaction time 3 h): not detected
Decomposition efficiency: ratio of each glycoside/aglycon within its isoflavone family (Crude diglycosidase; roasted soy flour, substrate concentration 5%, heat treatment of enzyme no, reaction time 6 h): not detected
Decomposition efficiency: ratio of each glycoside/aglycon within its isoflavone family (Crude diglycosidase; roasted soy flour, substrate concentration 5%, heat treatment of enzyme yes, reaction time 6 h): not detected
Decomposition efficiency: ratio of each glycoside/aglycon within its isoflavone family (Crude diglycosidase; roasted soy flour, substrate concentration 10%, heat treatment of enzyme no, reaction time 0 h): not detected
Decomposition efficiency: ratio of each glycoside/aglycon within its isoflavone family (Crude diglycosidase; roasted soy flour, substrate concentration 10%, heat treatment of enzyme no, reaction time 1 h): not detected
